Assay results: ChEMBL document CHEMBL5512688 (J Med Chem, 2024)

Assays:
A-427 [1] = experiment: Induction of apoptosis in human A-427 cells assessed as early apoptotic cells at 400 nM measured for 48 hrs by Annexin V/PI double staining based flow cytometry analysis (reference value: 1.96%); assay type: functional
A-427 [2] = experiment: Induction of apoptosis in human A-427 cells assessed as necrotic cells at 800 nM measured for 48 hrs by Annexin V/PI double staining based flow cytometry analysis (reference value: 0.098%); assay type: functional
[3] = Clearance in ICR mouse at 1 mg/kg, iv measured upto 24 hrs by LC-MS/MS analysis; assay type: ADME, organism-based; conditions: in vivo
Wee1-like protein kinase = Wee1-like protein kinase (Homo sapiens, UniProt P30291); experiment: Inhibition of Wee1 in human U2OS cells assessed as reduction in CDK1 phosphorylation measured for 1 hr by Western blot analysis; assay type: cell-based
Sequence of Wee1-like protein kinase (P30291 whole entry): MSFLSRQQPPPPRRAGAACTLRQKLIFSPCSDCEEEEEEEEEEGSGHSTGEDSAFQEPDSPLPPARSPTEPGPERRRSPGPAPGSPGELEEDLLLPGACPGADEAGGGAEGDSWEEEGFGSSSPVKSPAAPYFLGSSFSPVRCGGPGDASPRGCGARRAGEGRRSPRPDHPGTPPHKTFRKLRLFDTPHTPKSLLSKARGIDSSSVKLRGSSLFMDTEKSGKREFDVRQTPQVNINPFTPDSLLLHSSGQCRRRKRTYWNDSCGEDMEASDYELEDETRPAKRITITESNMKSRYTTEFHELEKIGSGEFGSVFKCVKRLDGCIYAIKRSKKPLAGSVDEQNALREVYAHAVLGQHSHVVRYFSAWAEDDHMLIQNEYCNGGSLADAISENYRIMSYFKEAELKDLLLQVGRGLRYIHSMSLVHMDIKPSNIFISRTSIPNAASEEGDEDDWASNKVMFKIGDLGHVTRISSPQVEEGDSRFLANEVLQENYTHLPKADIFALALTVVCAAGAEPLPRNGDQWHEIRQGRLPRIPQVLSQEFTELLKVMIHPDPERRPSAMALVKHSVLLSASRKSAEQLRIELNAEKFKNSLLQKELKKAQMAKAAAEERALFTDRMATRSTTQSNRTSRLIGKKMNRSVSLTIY

C=CCn1c(=O)c2cnc(Nc3ccc(N4CCN(C)CC4)cc3)nc2n1-c1cccc(-c2cnccn2)n1
Activity (A-427 [1]): 10.1%
Activity (A-427 [2]): 3.64%
clearance [3]: 137 mL/min/kg
IC50 (Wee1-like protein kinase): 430 nM
